Test results: patent US10940201B2, “Nucleic acid derivative having immunostimulatory activity” (Shionogi & Co., Ltd., priority 2015, dated 2021)

Experiment: Subcutaneous irritation test in a single dose
Format: in vivo, rats
Conditions: for Gross: Subcutaneous: White nudules / Histopathological, Subcutaneous: Cyst-like structure accompanied with formulation of fibrous capsule / Gross: Epidermis: Crust / Histopathological, Subcutaneous: Cyst-like structure: number of the observed animals; for Histopathological, Muscle layer: Monocyte infiltration / Histopathological, Subcutaneous: Edema / Histopathological, Subcutaneous: Granulomatous infiltration / Histopathological, Subcutaneous: Neutrophilic infiltration / Histopathological, Subcutaneous: Granulomatous inflammation / Histopathological, Subcutaneous: Monocyte infiltration / Histopathological, Subcutaneous: Necrosis: total score of grades; for Administration site, Gross: Subcutaneous: Red spots, Erythema / Administration site, Gross: Subcutaneous: White accumulation / Administration site, Histopathological: Subcutaneous: Cyst-like structure: number of the observed animals (of 3); for Administration site, Gross: Subcutaneous: Red spots, Erythema / Administration site, Gross: Subcutaneous: White accumulation / Administration site, Histopathological: Subcutaneous: Cyst-like structure / Number of deaths / Number of imminent dissections / Administration site, Histopathological: Muscle layer: Edema / Administration site, Histopathological: Muscle layer: Neutrophilic infiltration / Administration site, Histopathological: Subcutaneous: Bleeding / Administration site, Histopathological: Subcutaneous: Edema / Administration site, Histopathological: Subcutaneous: Neutrophilic infiltration: one day after administration; for Number of deaths / Number of imminent dissections / Administration site, Histopathological: Muscle layer: Edema / Administration site, Histopathological: Muscle layer: Neutrophilic infiltration / Administration site, Histopathological: Subcutaneous: Bleeding / Administration site, Histopathological: Subcutaneous: Edema / Administration site, Histopathological: Subcutaneous: Neutrophilic infiltration: 3 animals; for Administration site, Histopathological: Muscle layer: Edema / Administration site, Histopathological: Muscle layer: Neutrophilic infiltration / Administration site, Histopathological: Subcutaneous: Bleeding / Administration site, Histopathological: Subcutaneous: Edema / Administration site, Histopathological: Subcutaneous: Neutrophilic infiltration: total score (Minimal 1, Mild 2, Moderate 3)
Experimental: Subcutaneous irritation of a compound of the present invention was evaluated by gross examination and histopathological examination about the skin at necropsy one day, one and four week(s) after subcutaneous administration in a single dose.
The compound of the present invention was subcutaneously administered to the center of back between the shoulder blades of rats. At necropsy one day, one or four week(s) after administration (isoflurane anesthesia, euthanasia by bleeding), skin at the administration site was collected, grossly observed and fixed in 10% neutral buffered formalin solution. The fixed skin was cut out, embedded and put in a thin slice by the usual methods, and Hematoxylin-eosin (HE) stained sections were made. The pathological observers were observed the HE stained sections by an optical microscope, and recorded the histopathological findings. The changes in pathological findings were evaluated in four grades of Minimal; ±, Mild; +, Moderate; 2+ and Marked; 3+. When any grade was not appropriate for the finding, it was recorded as Positive.
SEQ-2, SEQ-49 or an adjuvant of the present invention was dissolved in phosphate buffered saline and administered at 4.71, 15.7 or 47.1 nmol/1 mL/site, respectively.

[1] = four weeks after administration, 4.71 nmol/site
[2] = four weeks after administration, 15.7 nmol/site
[3] = four weeks after administration, 47.1 nmol/site
[4] = one week after administration, 4.71 nmol/site
[5] = one week after administration, 15.7 nmol/site
[6] = one week after administration, 47.1 nmol/site

With ODN2006 [SEQ-49] the “Number of deaths/imminent dissections” value [1] was 0/0, the “Gross: Subcutaneous: White nudules” value [1] was 0 and the “Histopathological, Subcutaneous: Cyst-like structure accompanied with formulation of fibrous capsule” value (shortened to “Histopathological … of fibrous capsule”) [1] was 0. For the same substance, the “Histopathological, Muscle layer: Monocyte infiltration” value (“Histopathological, Muscle layer” below) [1] was 0, the “Histopathological, Subcutaneous: Edema” value [1] was 0 and the “Histopathological, Subcutaneous: Granulomatous infiltration” value [1] was 0. The “Histopathological, Subcutaneous: Neutrophilic infiltration” value [1] was 0, the “Number of deaths/imminent dissections” value [2] was 0/0 and the “Gross: Subcutaneous: White nudules” value [2] was 0. The “Histopathological … of fibrous capsule” value [2] was 0, the “Histopathological, Muscle layer” value [2] was 0 and the “Histopathological, Subcutaneous: Edema” value [2] was 0. For the same substance, the “Histopathological, Subcutaneous: Granulomatous infiltration” value [2] was 0, the “Histopathological, Subcutaneous: Neutrophilic infiltration” value [2] was 0 and the “Number of deaths/imminent dissections” value [3] was 0/0. For the same substance, the “Gross: Subcutaneous: White nudules” value [3] was 0, the “Histopathological … of fibrous capsule” value [3] was 0 and the “Histopathological, Muscle layer” value [3] was 0. For the same substance, the “Histopathological, Subcutaneous: Edema” value [3] was 0, the “Histopathological, Subcutaneous: Granulomatous infiltration” value [3] was 0 and the “Histopathological, Subcutaneous: Neutrophilic infiltration” value [3] was 0. The “Administration site, Gross: Subcutaneous: Red spots, Erythema” value (“Administration site, Gross … Erythema” for short) (4.71 nmol/site) was 0, the “Administration site, Gross: Subcutaneous: White accumulation” value (from here on “Administration site … White accumulation”) (4.71 nmol/site) was 0 and the “Administration site, Histopathological: Subcutaneous: Cyst-like structure” value (4.71 nmol/site) was 0. The “Administration site, Gross … Erythema” value (15.7 nmol/site) was 0, the “Administration site … White accumulation” value (15.7 nmol/site) was 0 and the “Administration site, Histopathological: Subcutaneous: Cyst-like structure” value (15.7 nmol/site) was 0. The “Administration site, Gross … Erythema” value (47.1 nmol/site) was 1, the “Administration site … White accumulation” value (47.1 nmol/site) was 0 and the “Administration site, Histopathological: Subcutaneous: Cyst-like structure” value (47.1 nmol/site) was 0. The Number of deaths (4.71 nmol/site) was 0/0, the “Number of imminent dissections” value (4.71 nmol/site) was 0/0 and the Number of deaths (15.7 nmol/site) was 0/0. The “Number of imminent dissections” value (15.7 nmol/site) was 0/0, the Number of deaths (47.1 nmol/site) was 0/0 and the “Number of imminent dissections” value (47.1 nmol/site) was 0/0. For the same substance, the “Number of deaths/imminent dissections” value [4] was 0/0, the “Gross: Epidermis: Crust” value [4] was 1 and the “Gross: Subcutaneous: White nudules” value [4] was 0. The “Histopathological, Subcutaneous: Cyst-like structure” value [4] was 0, the “Histopathological, Subcutaneous: Edema” value [4] was 4 and the “Histopathological, Subcutaneous: Granulomatous inflammation” value [4] was 0. For the same substance, the “Histopathological, Subcutaneous: Monocyte infiltration” value [4] was 3, the “Histopathological, Subcutaneous: Necrosis” value (“Histopathological … Necrosis” for short) [4] was 0 and the “Histopathological, Subcutaneous: Neutrophilic infiltration” value [4] was 0. The “Number of deaths/imminent dissections” value [5] was 0/0, the “Gross: Epidermis: Crust” value [5] was 1 and the “Gross: Subcutaneous: White nudules” value [5] was 0. The “Histopathological, Subcutaneous: Cyst-like structure” value [5] was 0, the “Histopathological, Subcutaneous: Edema” value [5] was 6 and the “Histopathological, Subcutaneous: Granulomatous inflammation” value [5] was 0. For the same substance, the “Histopathological, Subcutaneous: Monocyte infiltration” value [5] was 6, the “Histopathological … Necrosis” value [5] was 0 and the “Histopathological, Subcutaneous: Neutrophilic infiltration” value [5] was 0. The “Number of deaths/imminent dissections” value [6] was 0/0, the “Gross: Epidermis: Crust” value [6] was 0 and the “Gross: Subcutaneous: White nudules” value [6] was 0. For the same substance, the “Histopathological, Subcutaneous: Cyst-like structure” value [6] was 0, the “Histopathological, Subcutaneous: Edema” value [6] was 5 and the “Histopathological, Subcutaneous: Granulomatous inflammation” value [6] was 0. The “Histopathological, Subcutaneous: Monocyte infiltration” value [6] was 8, the “Histopathological … Necrosis” value [6] was 0 and the “Histopathological, Subcutaneous: Neutrophilic infiltration” value [6] was 0. The “subcutaneous irritation findings four weeks after administration” value (rats, single subcutaneous dose, four weeks) was “inflammation was almost recovered”, the “subcutaneous irritation findings one day after administration” value (rats, single subcutaneous dose, one day) was “acute inflammation, mainly neutrophil infiltration, was observed under the skin” and the “subcutaneous irritation findings one week after administration” value (rats, single subcutaneous dose, one week) was “inflammation, mainly lymphocyte and macrophage, was observed from subcutaneous to dermis tissue”. For the same substance, the “Administration site, Histopathological: Muscle layer: Edema” value (4.71 nmol/site) was 2, the “Administration site, Histopathological: Muscle layer: Neutrophilic infiltration” value (4.71 nmol/site) was 4 and the “Administration site, Histopathological: Subcutaneous: Bleeding” value (4.71 nmol/site) was 2. For the same substance, the “Administration site, Histopathological: Subcutaneous: Edema” value (4.71 nmol/site) was 4, the “Administration site, Histopathological: Subcutaneous: Neutrophilic infiltration” value (4.71 nmol/site) was 6 and the “Administration site, Histopathological: Muscle layer: Edema” value (15.7 nmol/site) was 1. For the same substance, the “Administration site, Histopathological: Muscle layer: Neutrophilic infiltration” value (15.7 nmol/site) was 6, the “Administration site, Histopathological: Subcutaneous: Bleeding” value (15.7 nmol/site) was 1 and the “Administration site, Histopathological: Subcutaneous: Edema” value (15.7 nmol/site) was 5. For the same substance, the “Administration site, Histopathological: Subcutaneous: Neutrophilic infiltration” value (15.7 nmol/site) was 6, the “Administration site, Histopathological: Muscle layer: Edema” value (47.1 nmol/site) was 0 and the “Administration site, Histopathological: Muscle layer: Neutrophilic infiltration” value (47.1 nmol/site) was 5. For the same substance, the “Administration site, Histopathological: Subcutaneous: Bleeding” value (47.1 nmol/site) was 2, the “Administration site, Histopathological: Subcutaneous: Edema” value (47.1 nmol/site) was 5 and the “Administration site, Histopathological: Subcutaneous: Neutrophilic infiltration” value (47.1 nmol/site) was 6.
